Like-named read-outs stand apart in the source and are kept apart here.
What was measured:
[1] = test system: glycosaminoglycan (GAG) accumulation in MSD NSCs; experiment: Alcian blue staining of GAGs in differentiated NSCs from MSD mice (FIG. 22); format: cell-based, mouse; conditions: glia-differentiated MSD NSCs, 10 nM, 24 hours, versus DMSO
Experimental: After 24 hours, the GAG content was determined by alcian blue (AB) staining. Both torins were able to reduce GAG staining in MSD treated cells as compared to DMSO treated cells.
Neuronal progenitor cells were isolated from cortices of WT and MSD pups (P0) by tissue homogenization using the neural tissue dissociation kit and separation using magnetic sorting of cells expressing the stem cell marker prominin-1 (Miltenyi Biotec Srl). Neuronal progenitor cells were maintained in ESGRO complete medium (Hyclone) in the presence of EGF and FGF2 growth factors (Prepotech). Where indicated, neural stem cells (NSCs) were differentiated by removing growth factors and incubate in ESGRO medium containing 2% of serum for at least 48 h.
Neuronal progenitor cells were isolated from cortices of WT and MSD pups (P0) by using standard protocols. Neuronal stem cells (NSCs) were fixed in Methacarn (60% Methanol; 10% Acetic Acid; 30% Chloroform) for 15 min at RT. After washing the cells were stained for 3 hours in 1% alcian blue pH 2.5, rinsed in 0.3% acetic acid and water and mounted in 100% for visualization.

[2] = test system: Multiple Sulfatase Deficiency (MSD) mice; experiment: Liver GAG accumulation by alcian blue staining in treated MSD mice (FIG. 24); format: in vivo; conditions: oral gavage 0.3 mg/day/mouse in 50% PEG400, 10 days, n=3
Experimental: FIG. 24 Torin 2 reduces GAG accumulation in the liver of MSD mice. MSD mice were treated with placebo (MSD—750) or torin2 (MSD—727) during 10 days (oral administration; 0.3 mg torin 2/day/mouse in 50% PEG400). After the treatment liver tissues were collected and GAG accumulation was determined by alcian blue staining (black spots).
(§1) Multiple Sulfatase Deficiency (MSD) mice were treated with placebo (n=3) or torin 2 (n=3) during 10 days (gavage-oral administration; 0.3 mg torin 2/day/mouse in 50% PEG400). […] After the treatment liver tissues were collected and GAG accumulation was determined by alcian blue staining.
Sections of paraffin-embedded liver tissue were stained with 1% Alcian blue (Sigma-Aldrich) and counterstained with Nuclear-Fast red (Sigma-Aldrich).

TFEB = experiment: High content TFEB-GFP nuclear translocation assay; format: cell-based; conditions: Homo sapiens, TFEB-GFP HeLa cells
Experimental: Immunoblotting of protein extracts isolated from HeLa cells treated overnight, as indicated. Membranes were probed with antibodies for p-T202/Y204-ERK1/2, ERK1/2, p-T389-S6K, and S6K to measure ERK and mTORC1 activities. […] FLAG immunoblotting of cytosolic and nuclear fractions isolated from TFEB-3×FLAG HeLa cells cultured in amino acid-free media and subsequently stimulated as indicated for at least 3 h. Correct subcellular fractionation was verified with H3 and tubulin antibodies. […] After 3 h at 37° C. in RPMI medium containing one of each of the compounds, the cells were washed, fixed, and stained with DAPI and photographed by using confocal automated microscopy (Opera high content system, Perkin Elmer). […] Scale bars represent 30 μm. […] The EC50 for each compound was calculated using Prism software (see Materials and Methods for details). […] Antibody used were p-T389-S6K, S6K and FLAG. […] HeLa cells stably expressing Flag-3×TFEB were infected with lentiviruses encoding a Short hairpin (Sh-) RNA targeting luciferase (control) or RagC and RagD mRNAs. […] TFEB localization was detected with a FLAG antibody, whereas tubulin and H3 were used as controls for the cytosolic and nuclear fraction, respectively; levels of S6K phosphorylation were used to test RagC and RagD knockdown efficiency.
After 3 hours at 37° C. in RPMI medium cells were washed, fixed, and stained with DAPI. For the acquisition of the images, ten pictures per each well of the 384-well plate were taken by using confocal automated microscopy (Opera high content system, Perkin Elmer). A dedicated script was developed to perform the analysis of TFEB localization on the different images (Acapella software, Perkin Elmer). The script calculates the ratio value resulting from the average intensity of nuclear TFEB-GFP fluorescence divided by the average of the cytosolic intensity of TFEB-GFP fluorescence. The results were normalized using negative (RPMI medium) and positive (HBSS starvation) control samples in the same plate. The data are represented by the percentage of nuclear translocation at the different concentrations of each compound using Prism software (GraphPad software). The EC50 for each compound was calculated using non-linear regression fitting (Prism software).
In order to find additional small molecules able to induce the translocation of TFEB from the cytosol to the nucleus, the applicants developed a cell-based high content assay using stable HeLa cells overexpressing TFEB fused to the green fluorescent protein (TFEB-GFP). In the assay imaging of treated cells is acquired by an automated confocal microscope (OPERA system) and the analysis of those images with Acapella image software calculates the ratio of the average of fluorescence intensity of TFEB-GFP between the cytosol and nucleus of the cell (see Materials and methods for details). […] They tested ten concentrations for each inhibitor.

[3] = test system: vacuolization in MSD cells; experiment: Electron microscopy of vacuolization in differentiated MSD NSCs (FIG. 23); format: cell-based, mouse
Experimental: Differentiated NSC were fixed on glutaraldehyde and processed for standard electron microscopy.
Cells were washed with PBS, fixed in 0.05% glutaraldehyde, and dissolved in 0.2 M Hepes buffer (pH 7.4) for 30 min at room temperature. The cells were then post-fixed for 2 h in OsO4. After dehydration in graded series of ethanol, the cells were embedded in Epon 812 (Fluka) and polymerized at 60° C. for 72 h. Thin sections were cut at the Leica EM UC6, counterstained with uranyl acetate and lead citrate.

[4] = format: in vivo; conditions: MSD mice, oral gavage 0.3 mg/day/mouse, 10 days
Experimental: as §1

## Nc1ccc(-c2ccc3ncc4ccc(=O)n(-c5cccc(C(F)(F)F)c5)c4c3c2)cn1 [TORIN 2]
[1]
  alcian blue-stained GAGs: striking reduction
[2]
  GAG staining in liver: significant reduction
TFEB; 3 h, ten concentrations 2.54 nM to 50 μM (FIG. 19D), read-out: EC50, TFEB nuclear translocation
  EC50: 1670 nM
TFEB; mobilization of cytosolic TFEB to the nucleus, 3 h at 37° C. in RPMI, ten concentrations 50 μM to 2.54 nM, 4 runs, read-out: Average EC50
  EC50: < 7000 nM
[3]
  cellular vacuolization: reduces vacuolization
[4]
  body weight after treatment: no weight differences
  survival: all the mice treated survived
